Results published in patent US12435044B2, “Pyridazinone herbicides and pyridazinone intermediates used to prepare a herbicide” (FMC Corporation, priority 2018, dated 2025).

Columns and labels:
Type in all cases: in vivo
[1] = test system: rice (ORYSS; Oryza sativa, cv. M202); experiment: Test of Tables L1 to L3, postemergence, mixtures of Cpd. No. 20 with benoxacor, isoxadifen-ethyl, or cloquintocet-mexyl; settings: 31 g a.i./ha
Description: (§1) This test evaluated the effect of mixtures of Cpd. No. 20 with benoxacor, isoxadifen-ethyl, or cloquintocet-mexyl on several plant species. Seeds of plant species selected from corn (ZEAMD; Zea mays, cv. ‘Pioneer 1184’), soybean (GLXMA; Glycine max, cv. Pioneer 35T58), winter wheat (TRZAW; Triticum aetivum, cv. Arezzo), rice (ORYSS; Oryza sativa, cv. M202), and giant foxtail (SETFA; Setaria faberi) were planted in pots containing Redi-Earth® planting medium (Scotts Company, 14111 Scottslawn Road, Marysville, Ohio 43041) comprising spaghnum peat moss, vermiculite, wetting agent and starter nutrients and treated postemergence using test chemicals formulated in a non-phytotoxic solvent mixture which included a surfactant. Plants ranged in height from 7 to 10 cm and were in the one- to two-leaf stage for the postemergence treatment. Treated plants and untreated controls were maintained in a greenhouse for approximately 14 d, after which time all treated plants were compared to untreated controls and visually evaluated for injury. Plant response ratings, summarized in Tables L1 to L3, are based on a 0 to 100 scale where 0 is no effect and 100 is complete control. A dash (-) response means no test result. Test results are presented as a mean of 4 reps.

[2] = test system: winter wheat (TRZAW; Triticum aetivum, cv. Arezzo); experiment: as above; settings: 31 g a.i./ha
Description: as §1

[3] = test system: corn (ZEAMD; Zea mays, cv. ‘Pioneer 1184’); experiment: as above; settings: 31 g a.i./ha
Description: as §1

[4] = test system: giant foxtail (SETFA; Setaria faberi); experiment: as above; settings: 31 g a.i./ha
Description: as §1

[5] = test system: soybean (GLXMA; Glycine max, cv. Pioneer 35T58); experiment: as above; settings: 31 g a.i./ha
Description: as §1

[6] = test system: rice (ORYSS; Oryza sativa, cv. M202); experiment: Test M postemergence, mixtures of Cpd. No. 20 with isoxadifen-ethyl, cloquintocet-mexyl or Mefenpyr-diethyl; settings: approx. 14 d, second component alone 31 g a.i./ha
Description: as §1, with “with” for “with benoxacor,”, “or cloquintocet-mexyl, or Mefenpyr-diethyl” for “or cloquintocet-mexyl”, “Arezzo), winter barley (HORVW; Hordeum vulgare, cv. Boone),” for “Arezzo),”, “Tables M1” for “Tables L1”, “to M3,” for “to L3,”, “of 3” for “of 4”

[7] = test system: winter wheat (TRZAW; Triticum aetivum, cv. Arezzo); experiment: as above; settings: approx. 14 d, second component alone 31 g a.i./ha
Description: as §1, with “with” for “with benoxacor,”, “or cloquintocet-mexyl, or Mefenpyr-diethyl” for “or cloquintocet-mexyl”, “Arezzo), winter barley (HORVW; Hordeum vulgare, cv. Boone),” for “Arezzo),”, “Tables M1” for “Tables L1”, “to M3,” for “to L3,”, “of 3” for “of 4”

[8] = test system: corn (ZEAMD; Zea mays, cv. ‘Pioneer 1184’); experiment: as above; settings: approx. 14 d, second component alone 31 g a.i./ha
Description: as §1, with “with” for “with benoxacor,”, “or cloquintocet-mexyl, or Mefenpyr-diethyl” for “or cloquintocet-mexyl”, “Arezzo), winter barley (HORVW; Hordeum vulgare, cv. Boone),” for “Arezzo),”, “Tables M1” for “Tables L1”, “to M3,” for “to L3,”, “of 3” for “of 4”

[9] = test system: winter barley (HORVW; Hordeum vulgare, cv. Boone); experiment: as above; settings: approx. 14 d, second component alone 31 g a.i./ha
Description: as §1, with “with” for “with benoxacor,”, “or cloquintocet-mexyl, or Mefenpyr-diethyl” for “or cloquintocet-mexyl”, “Arezzo), winter barley (HORVW; Hordeum vulgare, cv. Boone),” for “Arezzo),”, “Tables M1” for “Tables L1”, “to M3,” for “to L3,”, “of 3” for “of 4”

[10] = test system: giant foxtail (SETFA; Setaria faberi); experiment: as above; settings: approx. 14 d, second component alone 31 g a.i./ha
Description: as §1, with “with” for “with benoxacor,”, “or cloquintocet-mexyl, or Mefenpyr-diethyl” for “or cloquintocet-mexyl”, “Arezzo), winter barley (HORVW; Hordeum vulgare, cv. Boone),” for “Arezzo),”, “Tables M1” for “Tables L1”, “to M3,” for “to L3,”, “of 3” for “of 4”

[11] = test system: soybean (GLXMA; Glycine max, cv. Pioneer 35T58); experiment: as above; settings: approx. 14 d, second component alone 31 g a.i./ha
Description: as §1, with “with” for “with benoxacor,”, “or cloquintocet-mexyl, or Mefenpyr-diethyl” for “or cloquintocet-mexyl”, “Arezzo), winter barley (HORVW; Hordeum vulgare, cv. Boone),” for “Arezzo),”, “Tables M1” for “Tables L1”, “to M3,” for “to L3,”, “of 3” for “of 4”

SMILES	ORYSS plant response rating, 0 to 100 scale [1]	TRZAW plant response rating, 0 to 100 scale [2]	ZEAMD plant response rating, 0 to 100 scale [3]	SETFA plant response rating, 0 to 100 scale [4]	GLXMA plant response rating, 0 to 100 scale [5]	Plant response rating (0 to 100 scale) ORYSS [6]	Plant response rating (0 to 100 scale) TRZAW [7]	Plant response rating (0 to 100 scale) ZEAMD [8]	Plant response rating (0 to 100 scale) HORVW [9]	Plant response rating (0 to 100 scale) SETFA [10]	Plant response rating (0 to 100 scale) GLXMA [11]
CCOC(=O)C1=NOC(c2ccccc2)(c2ccccc2)C1 [Isoxadifen-ethyl, isoxadifen-ethyl, reference compound]	8	0	0	0	10	0	0	0	0	0	0
CCOC(=O)C1=NN(c2ccc(Cl)cc2Cl)C(C)(C(=O)OCC)C1 (centres unmarked) [Mefenpyr-diethyl, reference compound]	–	–	–	–	–	0	0	0	0	0	0
